Values after ≈ are worked out from the molar mass of the structure shown.
Experiments:
Staphylococcus aureus [1] = experiment: Antibacterial activity against methicillin resistant Staphylococcus aureus assessed as inhibition of bacterial growth incubated for 18 hrs by CLSI based serial agar dilution method; assay type: functional
Staphylococcus aureus [2] = experiment: Antibacterial activity against methicillin resistant Staphylococcus aureus 032 assessed as inhibition of bacterial growth incubated for 18 hrs by CLSI based serial agar dilution method; assay type: functional
Streptococcus pneumoniae [3] = experiment: Antibacterial activity against beta-lactams, macrolide and fluoroquinolone resistant Streptococcus pneumoniae 718 assessed as inhibition of bacterial growth incubated for 18 hrs by CLSI based serial agar dilution method; assay type: functional
Staphylococcus aureus [4] = experiment: Antibacterial activity against Staphylococcus aureus […] assessed as inhibition of bacterial growth incubated for 18 hrs by CLSI based serial agar dilution method; assay type: functional
Staphylococcus aureus [5] = experiment: Antibacterial activity against methicillin resistant Staphylococcus aureus 5076 harbouring DNA gyrase and topoisomerase IV mutant and efflux pump assessed as inhibition of bacterial growth incubated for 18 hrs in presence of efflux inhibitor by CLSI based serial agar dilution method; assay type: functional
Streptococcus pneumoniae [6] = experiment: Antibacterial activity against beta-lactams, macrolide and fluoroquinolone resistant Streptococcus pneumoniae 718 infected in po dosed Swiss mouse septicemia model assessed as protective dose administered on 1 and 5 hrs post infection and measured on day 7; assay type: functional, organism-based
Streptococcus pneumoniae [7] = experiment: Antibacterial activity against Streptococcus pneumoniae assessed as inhibition of bacterial growth incubated for 18 hrs by CLSI based serial agar dilution method; assay type: functional
Streptococcus pneumoniae [8] = experiment: Antibacterial activity against Streptococcus pneumoniae 5844 harbouring moxifloxacin resistant DNA gyrase and topoisomerase IV mutant assessed as inhibition of bacterial growth incubated for 18 hrs by CLSI based serial agar dilution method; assay type: functional; conditions: Streptococcus pneumoniae, 5844, 18 h
Streptococcus pneumoniae [9] = experiment: Antibacterial activity against fluoroquinolone efflux positive Streptococcus pneumoniae 706 assessed as inhibition of bacterial growth incubated for 18 hrs by CLSI based serial agar dilution method; assay type: functional
Staphylococcus aureus [10] = experiment: Antibacterial activity against methicillin resistant Staphylococcus aureus 5076 assessed as inhibition of bacterial growth incubated for 18 hrs by CLSI based serial agar dilution method; assay type: functional
[11] = Mutagenicity in Swiss mouse assessed as chromosomal aberration in bone marrow cells at 400 mg/kg, po measured after 24 hrs relative to control; assay type: toxicity, organism-based; conditions: in vivo
[12] = Induction of drug resistance in methicillin resistant Staphylococcus aureus assessed as increase in MIC measured after 10 passages (reference value: 0.4 ug/ml); assay type: functional
[13] = Staphylococcus aureus, read-out: MIC
[14] = Staphylococcus aureus, 032, 18 h, read-out: MIC
[15] = Streptococcus pneumoniae, 718, 18 h, read-out: MIC
[16] = Streptococcus pneumoniae, 18 h, read-out: MIC

COc1c(N2CC[C@H](N)C(C)(C)C2)c(F)cc2c(=O)c(C(=O)O)cn(C3CC3)c12 gave an MIC (Staphylococcus aureus [1]; [13]) of 0.05 µg/mL (≈ 0.124 µM), an MIC (Staphylococcus aureus [2]; [14]) of 0.8 µg/mL (≈ 1.98 µM) and an MIC (Streptococcus pneumoniae [3]; [15]) of 0.8 µg/mL (≈ 1.98 µM). It also gave an MIC (Staphylococcus aureus [4]) of 0.05 µg/mL (≈ 0.124 µM), an MIC (Staphylococcus aureus [5]) of 1.56 µg/mL and an EC50 (Streptococcus pneumoniae [6]) of 50 mg/kg.

CONC1CCN(c2c(F)cc3c(=O)c(C(=O)O)cn(C4CC4)c3c2OC)CC1(C)C (configuration not stated) showed an MIC (Staphylococcus aureus [1]; [13]) of 0.1 µg/mL (≈ 0.231 µM), an MIC (Streptococcus pneumoniae [7]; [16]) of 0.8 µg/mL (≈ 1.85 µM) and an MIC (Streptococcus pneumoniae [8]) greater than 6.25 µg/mL. It also gave an MIC (Streptococcus pneumoniae [9]) of 0.8 µg/mL (≈ 1.85 µM).

For CCC1CN(c2c(F)cc3c(=O)c(C(=O)O)cn(C4CC4)c3c2OC)CCC1NC (configuration not stated), the MIC (Staphylococcus aureus [1]; [13]) was 0.2 µg/mL (≈ 0.479 µM) and the MIC (Streptococcus pneumoniae [7]; [16]) was 1.56 µg/mL (≈ 3.74 µM).

Compound CC1(C)CN(c2cc3c(cc2F)c(=O)c(C(=O)O)cn3C2CC2)CCC1N (configuration not stated) has an MIC (Staphylococcus aureus [1]; [13]) of 12.5 µg/mL (≈ 33.5 µM) and an MIC (Streptococcus pneumoniae [7]; [16]) of 0.8 µg/mL (≈ 2.14 µM).

COc1c(N2CCC(N(C)C)C(C)(C)C2)c(F)cc2c(=O)c(C(=O)O)cn(C3CC3)c12 (configuration not stated) showed an MIC (Staphylococcus aureus [1]; [13]) of 0.2 µg/mL (≈ 0.463 µM) and an MIC (Streptococcus pneumoniae [7]; [16]) of 0.4 µg/mL (≈ 0.927 µM).

COc1c(N2CCC(N)C(C)C2)c(F)cc2c(=O)c(C(=O)O)cn(C3CC3)c12 (configuration not stated) showed an MIC (Staphylococcus aureus [1]; [13]) of 0.05 µg/mL (≈ 0.128 µM) and an MIC (Streptococcus pneumoniae [7]; [16]) of 0.2 µg/mL (≈ 0.514 µM).

In the case of CCNC1CCN(c2c(F)cc3c(=O)c(C(=O)O)cn(C4CC4)c3c2OC)CC1(C)C (configuration not stated), the MIC (Staphylococcus aureus [1]; [13]) is reported as 0.2 µg/mL (≈ 0.463 µM), the MIC (Streptococcus pneumoniae [7]; [16]) is reported as 1.56 µg/mL (≈ 3.62 µM) and the MIC (Streptococcus pneumoniae [9]) is reported as 1.56 µg/mL (≈ 3.62 µM).

For COc1c(N2CC(C)C(N)C(C)C2)c(F)cc2c(=O)c(C(=O)O)cn(C3CC3)c12 (cis isomer), the MIC (Staphylococcus aureus [1]) was 0.1 µg/mL (≈ 0.248 µM).

Work on Cc1c(N2CCC(N)C(C)C2)c(F)cc2c(=O)c(C(=O)O)cn(C3CC3)c12.Cl (cis isomer) yielded an EC50 (Streptococcus pneumoniae [6]) of 30 mg/kg.

For Cc1c(N2CCC(N)C(C)(C)C2)c(F)cc2c(=O)c(C(=O)O)cn(C3CC3)c12 (racemic), the MIC (Staphylococcus aureus [2]; 18 h) was 1.56 µg/mL (≈ 4.03 µM) and the MIC (Streptococcus pneumoniae [3]; 18 h) was 1.56 µg/mL (≈ 4.03 µM).

Compound Cc1c(N2CCC(N)C(C)(C)C2)c(F)cc2c(=O)c(C(=O)O)cn(C3CC3)c12.Cl (racemic) has an EC50 (Streptococcus pneumoniae [6]) of 30 mg/kg.

Work on Cc1c(N2CCC(O)C(C)(C)C2)c(F)cc2c(=O)c(C(=O)O)cn(C3CC3)c12.Cl (racemic) yielded an MIC (Staphylococcus aureus [2]; [14]) of 0.8 µg/mL and an MIC (Streptococcus pneumoniae [3]; [15]) of 0.8 µg/mL.

With Cc1c(N2CCC(O)C(C)(C)C2)c(F)cc2c(=O)c(C(=O)O)cn(C3CC3)c12 (single isomer, unassigned; (+)) the MIC (Staphylococcus aureus [2]; [14]) was 0.2 µg/mL (≈ 0.515 µM), the MIC (Streptococcus pneumoniae [3]; [15]) was 0.2 µg/mL (≈ 0.515 µM) and the MIC (Staphylococcus aureus [4]) was 0.003 µg/mL (≈ 0.00772 µM). It also gave an MIC (Staphylococcus aureus [10]) of 0.2 µg/mL (≈ 0.515 µM) and an MIC (Staphylococcus aureus [5]) of 0.2 µg/mL.

Cc1c(N2CCC(N)C(C)(C)C2)c(F)cc2c(=O)c(C(=O)O)cn(C3CC3)c12 (single isomer, unassigned; (-)) gave an MIC (Staphylococcus aureus [2]; 18 h) of 0.4 µg/mL (≈ 1.03 µM), an MIC (Streptococcus pneumoniae [3]; 18 h) of 0.4 µg/mL (≈ 1.03 µM) and an MIC (Staphylococcus aureus [10]) of 0.8 µg/mL (≈ 2.06 µM). The MIC (Staphylococcus aureus [5]) was 0.8 µg/mL and the EC50 (Streptococcus pneumoniae [6]) was 20 mg/kg.

Compound COc1c(N2CCC(N)C(C)(C)C2)c(F)cc2c(=O)c(C(=O)O)cn(C3CC3)c12 (single isomer, unassigned; (-)) has an Activity [11] of 3.8%.

For COc1c(N2CC(C)C(N)C(C)C2)c(F)cc2c(=O)c(C(=O)O)cn(C3CC3)c12 (stereo in doubt), the MIC (Staphylococcus aureus [1]; [13]) was 0.1 µg/mL (≈ 0.248 µM) and the MIC (Streptococcus pneumoniae [7]; [16]) was 0.1 µg/mL (≈ 0.248 µM).

CCNC1C(C)CN(c2c(F)cc3c(=O)c(C(=O)O)cn(C4CC4)c3c2OC)CC1C (stereo in doubt) gave an MIC (Staphylococcus aureus [1]) of 0.2 µg/mL (≈ 0.463 µM) and an MIC (Streptococcus pneumoniae [7]) of 1.56 µg/mL (≈ 3.62 µM).

Cc1c(N2CCC(O)C(C)C2)c(F)cc2c(=O)c(C(=O)O)cn(C3CC3)c12 (stereo in doubt; form 1) showed an MIC (Staphylococcus aureus [2]; [14]) of 0.2 µg/mL (≈ 0.534 µM) and an MIC (Streptococcus pneumoniae [3]; [15]) of 0.2 µg/mL (≈ 0.534 µM).

Work on COc1c(N2CCC(N)C(C)(C)C2)c(F)cc2c(=O)c(C(=O)O)cn(C3CC3)c12 (stereo in doubt; form 1) yielded an MIC (Staphylococcus aureus [1]; [13]) of 0.05 µg/mL (≈ 0.124 µM), an MIC (Staphylococcus aureus [2]; [14]) of 0.6 µg/mL (≈ 1.49 µM) and an MIC (Staphylococcus aureus [5]) of 1.56 µg/mL. For the same compound, the EC50 (Streptococcus pneumoniae [6]) was 30 mg/kg and the Activity [11] was 5.83%.

In the case of Cc1c(N2CCC(O)C(C)C2)c(F)cc2c(=O)c(C(=O)O)cn(C3CC3)c12 (stereo in doubt; form 2), the MIC (Staphylococcus aureus [2]) is reported as 0.2 µg/mL (≈ 0.534 µM) and the MIC (Streptococcus pneumoniae [3]) is reported as 0.2 µg/mL (≈ 0.534 µM).

Work on COc1c(N2CCC(N)C(C)(C)C2)c(F)cc2c(=O)c(C(=O)O)cn(C3CC3)c12 (stereo in doubt; form 2) yielded an Activity [11] of 12%.

In the case of COc1c(N2CC(C)C(N)C(C)C2)c(F)cc2c(=O)c(C(=O)O)cn(C3CC3)c12 (trans isomer), the MIC (Staphylococcus aureus [1]) is reported as 0.05 µg/mL (≈ 0.124 µM) and the MIC (Streptococcus pneumoniae [7]; 18 h) is reported as 0.2 µg/mL (≈ 0.496 µM).

For CCNC1C(C)CN(c2c(F)cc3c(=O)c(C(=O)O)cn(C4CC4)c3c2OC)CC1C (trans isomer), the MIC (Staphylococcus aureus [1]) was 0.012 µg/mL (≈ 0.0278 µM) and the MIC (Streptococcus pneumoniae [7]; [16]) was 1.56 µg/mL (≈ 3.62 µM).

For Cc1c(N2CCC(N)C(C)C2)c(F)cc2c(=O)c(C(=O)O)cn(C3CC3)c12 (trans isomer), the MIC (Staphylococcus aureus [2]; [14]) was 0.8 µg/mL (≈ 2.14 µM).

With COc1c(N2CCNC(C)C2)c(F)cc2c(=O)c(C(=O)O)cn(C3CC3)c12 (configuration not stated) [GATIFLOXACIN] the EC50 (Streptococcus pneumoniae [6]) was greater than 100 mg/kg.

Compound C[C@H]1COc2c(N3CCN(C)CC3)c(F)cc3c(=O)c(C(=O)O)cn1c23.C[C@H]1COc2c(N3CCN(C)CC3)c(F)cc3c(=O)c(C(=O)O)cn1c23.O [LEVOFLOXACIN] has an MIC (Staphylococcus aureus [2]; [14]) of 6.25 µg/mL and an EC50 (Streptococcus pneumoniae [6]) greater than 100 mg/kg.

C[C@H]1CCc2c(N3CCC(O)CC3)c(F)cc3c(=O)c(C(=O)O)cn1c23 [LEVONADIFLOXACIN] showed an MIC (Staphylococcus aureus [1]; [13]) of 0.4 µg/mL (≈ 1.11 µM) and an MIC (Streptococcus pneumoniae [7]; [16]) of 0.4 µg/mL (≈ 1.11 µM).

In the case of COc1c(N2C[C@@H]3CCCN[C@@H]3C2)c(F)cc2c(=O)c(C(=O)O)cn(C3CC3)c12 [MOXIFLOXACIN], the EC50 (Streptococcus pneumoniae [6]) is reported as greater than 100 mg/kg and the MIC [12] is reported as 6.25 µg/mL.

Compound CC1COc2c(N3CCN(C)CC3)c(F)cc3c(=O)c(C(=O)O)cn1c23 (configuration not stated) [OFLOXACIN] has an MIC (Staphylococcus aureus [1]; [13]) of 0.4 µg/mL (≈ 1.11 µM) and an MIC (Streptococcus pneumoniae [7]; [16]) of 0.4 µg/mL (≈ 1.11 µM).

Source: ChEMBL document CHEMBL5143624, “WCK 1152, WCK 1153: Discovery and structure activity relationship for the treatment of resistant pneumococcal and staphylococcal respiratory infections” (Bioorg Med Chem Lett, 2022)
